Experimental data as given in US20130102493A1, “GENE EXPRESSION ANALYSES FOR CHARACTERIZING AND IDENTIFYING GENOTOXIC COMPOUNDS” (MERCK PATENT GESELLSCHAFT MIT BESCHRANKTER HAFTUNG, priority 2010, published 2013).
Read-outs that look alike come from different tables or passages of the source. Marks after values point to notes of the source that are not given here. *1 amine or outer side, *2 acyl side, *3 side chain or, on linkers, in order; H or OH if unused. Where a SMILES comes first, the peptide text is derived from it. Bridges are numbered along the chain shown (N, C = ends). Roman numbers before positions name the chains, in order. [ ]: non-standard residue; d: D form. Actinocin(9to1) = Cc1c2oc3c(C)ccc(C(=O)[*:1])c3nc-2c(C(=O)[*:2])c(N)c1=O; NMeV = CN[C@H](C(=O)O)C(C)C; Sar = CNCC(=O)O

Columns and labels:
[1] = system: HepG2 cells
[2] = system: HepG2 cells; remark: listed apart in the source
[3] = system: HepG2 cells; remark: listed apart in the source
[4] = system: CYP competent primary hepatocytes; details: cited from earlier work

Compound: Cc1c2oc3c(C)ccc(C(=O)N[C@@H]4C(=O)N[C@H](C(C)C)C(=O)N5CCC[C@H]5C(=O)N(C)CC(=O)N(C)[C@@H](C(C)C)C(=O)O[C@@H]4C)c3nc-2c(C(=O)N[C@@H]2C(=O)N[C@H](C(C)C)C(=O)N3CCC[C@H]3C(=O)N(C)CC(=O)N(C)[C@@H](C(C)C)C(=O)O[C@@H]2C)c(N)c1=O [ACT, actinomycin D] (I: T[dV]P[Sar][NMeV] / II: T[dV]P[Sar][NMeV]; ester I:1-I:C, II:1-II:C; linker I:N-II:N via Actinocin(9to1))
- MYC gene regulation [1]: down-regulated
- RNA polymerase II gene regulation [1]: down-regulation
- topoisomerase II (TOPO2) gene regulation [1]: down-regulation
- CDKN1A gene regulation relative to vehicle/S9 control ([1]; ACT 250 nM, without S9, 48 h): −1.15 fold
- CRABP2 gene regulation relative to vehicle/S9 control ([1]; ACT 250 nM, without S9, 48 h): 2.82* fold
- EMP1 gene regulation relative to vehicle/S9 control ([1]; ACT 250 nM, without S9, 48 h): 1.91* fold
- EMP3 gene regulation relative to vehicle/S9 control ([1]; ACT 250 nM, without S9, 48 h): 5.68* fold
- IER5 gene regulation relative to vehicle/S9 control ([1]; ACT 250 nM, without S9, 48 h): 3.07* fold
- LGALS7 gene regulation relative to vehicle/S9 control ([1]; ACT 250 nM, without S9, 48 h): 1.69* fold
- PLAU gene regulation relative to vehicle/S9 control ([1]; ACT 250 nM, without S9, 48 h): 3.69* fold
- PROCR gene regulation relative to vehicle/S9 control ([1]; ACT 250 nM, without S9, 48 h): 2.58* fold
- Categorization ([2]; 250 nM, 24 h, without S9): genotoxic
- Categorization ([2]; 250 nM, 48 h, without S9): genotoxic

Compound: O=P1(N(CCCl)CCCl)NCCCO1 (centres unmarked) [CPA, cyclophosphamide]
- EGR1 gene regulation [1]: up-regulation
- gene expression changes, single compound analysis vs vehicle controls [1]: extremely weak or no statistically significant

Compound: CCN(CC)N=O [DEN, N-nitrosodiethylamine]
- EGR1 gene regulation [1]: up-regulation
- number of down-regulated genes [1]: 57
- number of up-regulated genes [1]: 88
- CDKN1A gene regulation relative to vehicle/S9 control ([1]; DEN 25 mM, +S9, 48 h): 1.95* fold
- CRABP2 gene regulation relative to vehicle/S9 control ([1]; DEN 25 mM, +S9, 48 h): 2.09* fold
- EMP1 gene regulation relative to vehicle/S9 control ([1]; DEN 25 mM, +S9, 48 h): 1.84* fold
- EMP3 gene regulation relative to vehicle/S9 control ([1]; DEN 25 mM, +S9, 48 h): 2.26* fold
- IER5 gene regulation relative to vehicle/S9 control ([1]; DEN 25 mM, +S9, 48 h): 1.50* fold
- LGALS7 gene regulation relative to vehicle/S9 control ([1]; DEN 25 mM, +S9, 48 h): 1.77 fold
- PLAU gene regulation relative to vehicle/S9 control ([1]; DEN 25 mM, +S9, 48 h): 1.84 fold
- PROCR gene regulation relative to vehicle/S9 control ([1]; DEN 25 mM, +S9, 48 h): 1.76* fold
- CDKN1A gene regulation relative to vehicle/S9 control ([1]; DEN 25 mM, without S9, 48 h): −1.19 fold
- CRABP2 gene regulation relative to vehicle/S9 control ([1]; DEN 25 mM, without S9, 48 h): 1.54* fold
- EMP1 gene regulation relative to vehicle/S9 control ([1]; DEN 25 mM, without S9, 48 h): 1.61* fold
- EMP3 gene regulation relative to vehicle/S9 control ([1]; DEN 25 mM, without S9, 48 h): 1.04 fold
- IER5 gene regulation relative to vehicle/S9 control ([1]; DEN 25 mM, without S9, 48 h): 1.06 fold
- LGALS7 gene regulation relative to vehicle/S9 control ([1]; DEN 25 mM, without S9, 48 h): 1.11 fold
- PLAU gene regulation relative to vehicle/S9 control ([1]; DEN 25 mM, without S9, 48 h): 1.86* fold
- PROCR gene regulation relative to vehicle/S9 control ([1]; DEN 25 mM, without S9, 48 h): 1.30 fold
- CDKN1A gene regulation relative to vehicle/S9 control ([1]; DEN 50 mM, +S9, 48 h): 2.20* fold
- CRABP2 gene regulation relative to vehicle/S9 control ([1]; DEN 50 mM, +S9, 48 h): 1.80* fold
- EMP1 gene regulation relative to vehicle/S9 control ([1]; DEN 50 mM, +S9, 48 h): 2.09* fold
- EMP3 gene regulation relative to vehicle/S9 control ([1]; DEN 50 mM, +S9, 48 h): 2.03* fold
- IER5 gene regulation relative to vehicle/S9 control ([1]; DEN 50 mM, +S9, 48 h): 1.51 fold
- LGALS7 gene regulation relative to vehicle/S9 control ([1]; DEN 50 mM, +S9, 48 h): 1.97* fold
- PLAU gene regulation relative to vehicle/S9 control ([1]; DEN 50 mM, +S9, 48 h): 1.59* fold
- PROCR gene regulation relative to vehicle/S9 control ([1]; DEN 50 mM, +S9, 48 h): 1.63* fold
- CDKN1A gene regulation relative to vehicle/S9 control ([1]; DEN 50 mM, without S9, 48 h): −1.48* fold
- CRABP2 gene regulation relative to vehicle/S9 control ([1]; DEN 50 mM, without S9, 48 h): 1.40 fold
- EMP1 gene regulation relative to vehicle/S9 control ([1]; DEN 50 mM, without S9, 48 h): 1.37 fold
- EMP3 gene regulation relative to vehicle/S9 control ([1]; DEN 50 mM, without S9, 48 h): 1.02 fold
- IER5 gene regulation relative to vehicle/S9 control ([1]; DEN 50 mM, without S9, 48 h): 1.03 fold
- LGALS7 gene regulation relative to vehicle/S9 control ([1]; DEN 50 mM, without S9, 48 h): 1.23* fold
- PLAU gene regulation relative to vehicle/S9 control ([1]; DEN 50 mM, without S9, 48 h): 1.44 fold
- PROCR gene regulation relative to vehicle/S9 control ([1]; DEN 50 mM, without S9, 48 h): 1.20 fold
- classification by 91 gene-classifier ([3]; with S9 (MAS)): genotoxic
- classification by 91 gene-classifier ([3]; without S9): non-genotoxic
- concentrations giving a positive response [4]: 10000 to 32000 µM

Compound: Cc1c2ccccc2c(C)c2c1ccc1ccccc12 [DMBA, 7,12-dimethylbenz[a]anthracene]
- gene expression changes, single compound analysis vs vehicle controls ([1]; DMBA 10 μM w/o S9): extremely weak or no statistically significant
- CDKN1A gene regulation relative to vehicle/S9 control ([1]; DMBA 10 μM, +S9, 48 h): 3.18* fold
- CRABP2 gene regulation relative to vehicle/S9 control ([1]; DMBA 10 μM, +S9, 48 h): 2.31* fold
- EMP1 gene regulation relative to vehicle/S9 control ([1]; DMBA 10 μM, +S9, 48 h): 1.93* fold
- EMP3 gene regulation relative to vehicle/S9 control ([1]; DMBA 10 μM, +S9, 48 h): 2.61* fold
- IER5 gene regulation relative to vehicle/S9 control ([1]; DMBA 10 μM, +S9, 48 h): 1.83* fold
- LGALS7 gene regulation relative to vehicle/S9 control ([1]; DMBA 10 μM, +S9, 48 h): 1.93* fold
- PLAU gene regulation relative to vehicle/S9 control ([1]; DMBA 10 μM, +S9, 48 h): 2.13* fold
- PROCR gene regulation relative to vehicle/S9 control ([1]; DMBA 10 μM, +S9, 48 h): 2.26* fold
- CDKN1A gene regulation relative to vehicle/S9 control ([1]; DMBA 10 μM, without S9, 48 h): 1.36 fold
- CRABP2 gene regulation relative to vehicle/S9 control ([1]; DMBA 10 μM, without S9, 48 h): 1.10 fold
- EMP1 gene regulation relative to vehicle/S9 control ([1]; DMBA 10 μM, without S9, 48 h): 1.11 fold
- EMP3 gene regulation relative to vehicle/S9 control ([1]; DMBA 10 μM, without S9, 48 h): 1.18 fold
- IER5 gene regulation relative to vehicle/S9 control ([1]; DMBA 10 μM, without S9, 48 h): 1.30* fold
- LGALS7 gene regulation relative to vehicle/S9 control ([1]; DMBA 10 μM, without S9, 48 h): 1.25* fold
- PLAU gene regulation relative to vehicle/S9 control ([1]; DMBA 10 μM, without S9, 48 h): 1.29* fold
- PROCR gene regulation relative to vehicle/S9 control ([1]; DMBA 10 μM, without S9, 48 h): 1.18 fold
- regulation of the 91 genes ([1]; DMBA 75 μM w/o S9): relatively weak
- CDKN1A gene regulation relative to vehicle/S9 control ([1]; DMBA 75 μM, without S9, 48 h): 1.50* fold
- CRABP2 gene regulation relative to vehicle/S9 control ([1]; DMBA 75 μM, without S9, 48 h): 1.27 fold
- EMP1 gene regulation relative to vehicle/S9 control ([1]; DMBA 75 μM, without S9, 48 h): 1.31 fold
- EMP3 gene regulation relative to vehicle/S9 control ([1]; DMBA 75 μM, without S9, 48 h): 1.38* fold
- IER5 gene regulation relative to vehicle/S9 control ([1]; DMBA 75 μM, without S9, 48 h): 1.26* fold
- LGALS7 gene regulation relative to vehicle/S9 control ([1]; DMBA 75 μM, without S9, 48 h): 1.26 fold
- PLAU gene regulation relative to vehicle/S9 control ([1]; DMBA 75 μM, without S9, 48 h): 1.53* fold
- PROCR gene regulation relative to vehicle/S9 control ([1]; DMBA 75 μM, without S9, 48 h): 1.32* fold
- Categorization ([2]; 10 μM, 48 h, with S9): genotoxic
- Categorization ([2]; 75 μM, 48 h, without S9): genotoxic^#
- Categorization ([2]; DMBA 10 μM, 48 h, without S9): non-genotoxic
- prediction using the 91 top-scored genes ([3]; 75 μM w/o S9): predicted correctly

Compound: COS(C)(=O)=O [MMS, methyl methanesulfonate]
- EGR1 gene regulation [1]: up-regulation
- MYC gene regulation [1]: down-regulated
- AP endonuclease 2 (APEX2) gene regulation ([1]; after 24 h and 48 h treatment): up-regulated
- β-polymerase (POLB) gene regulation ([1]; after 48 h exposure): up-regulated

Compound: aflatoxin B1 [AFB1]
- EGR1 gene regulation [1]: up-regulation
- gene expression changes, single compound analysis vs vehicle controls [1]: extremely weak or no statistically significant
